Patent US20230043035A1, “AGAROPHYTON CHILENSIS EXTRACT, RICH IN FREE FATTY ACIDS, AS A NUTRACEUTICAL OR NUTRITIONAL SUPPLEMENT, SUITABLE FOR MODULATING PPAR# ACTIVITY” (UNIVERSIDAD ANDRES BELLO, priority 2019, published 2023)

Key:
PPARγ = molecular target: T1, PPARγ (Homo sapiens, UniProt P37231); test: PPARγ activation assay (gal4 PPARγ reporter gene) in PC12 cells; assay type: cell-based; details: 25 μM, n=10
T1 construct: GAL4 (fusion partner); expressed in transfected cells; host or cells: PC12 cells, transiently transfected with Lipofectamine 2000
T1 sequence (P37231 238-503 limits assumed): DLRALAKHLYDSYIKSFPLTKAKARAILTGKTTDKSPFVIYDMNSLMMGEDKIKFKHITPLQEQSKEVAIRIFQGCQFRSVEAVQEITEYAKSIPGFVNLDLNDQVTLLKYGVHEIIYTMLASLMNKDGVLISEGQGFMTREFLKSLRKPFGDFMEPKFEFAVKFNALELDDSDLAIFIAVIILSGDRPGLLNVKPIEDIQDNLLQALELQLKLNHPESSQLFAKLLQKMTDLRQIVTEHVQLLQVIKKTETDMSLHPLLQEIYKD
Description: In the PPARγ activation assay, an assay with the reporter gene gal4 PPARγ is performed, which allow assessing the activation of PPARγ induced by ligand, to which end concentrations of 30 and 60 μg/mL were used. PC12 cells were seeded in a 48-well plate at a density of 100,000 cells/well/250 μL of maintenance medium containing the medium RPMI1640® (Roswell Park Memorial Institute-1640 Medium) supplemented with 10% of horse serum (HS), 5% of fetal bovine serum (FBS) and 1× antibiotic/antimicotic (Ab-Am). Then, the DNA (0.8 μg luciferase plasmid (MH100tkLUC), 0.8 μg PPARγGAL4 plasmid and 0.053 μg β-galactosidase plasmid, (β-Gal)) were mixed in OptiMEM® (Opti-Minimun Essential Medium). This constitutes the DNA mixture. In parallel, lipofectamine 2000 was diluted in OptiMEM®. This constitutes the Lipofectamine® mixture. […] The lysate was collected, centrifuged for 1 minute at 14000 rpm, the β-galactosidase and luciferase activity in the supernatant was measured, and the times of PPARγ activation was calculated relative to the DMSO control (final concentration in the medium of 0.1%). In parallel, the activity of β-galactosidase was assessed (colorimetry). […] The activity results were expressed as times of increase in relation to the activity obtained with control cells (treated only with DMSO). […]

fabp4 gene = test: mRNA expression of adipocyte differentiation marker fabp4 in 3T3-L1 cells (qPCR); assay type: cell-based; details: 25 μM, 3T3-L1, day 7, n=3
Description: (§1) In order to assess the effect of the claimed extracts on differentiation of fibroblasts into adipocytes, 3T3-L1 cells are cultured at low passage, avoiding cells from reaching confluence. […] Thereafter, the maintenance medium was replaced.

3T3-L1 cells [1] = test: MTT viability assay in 3T3-L1 cells of the differentiation assay; assay type: cell-based; details: 25 μM, 3T3-L1, n=3
Description: In order to assess the effect of the claimed extracts on differentiation of fibroblasts into adipocytes, 3T3-L1 cells are cultured at low passage, avoiding cells from reaching confluence. […] Thereafter, the maintenance medium was replaced. […] After removing MTT, DMSO (99.9%) was added to lyse cells and dissolve MTT/MTT formazan. In order to assess absorbance at 570 nm and 620 nm in a spectrophotometer, 100 μl of this solution were moved to a 96-well plate. The difference between absorbances was calculated, and the survival relative to the control (DMSO) was determined.

3T3-L1 cells [2] = test: Differentiation of 3T3-L1 cells into adipocytes, Oil Red O accumulation; assay type: cell-based; details: 25 μM, 3T3-L1, day 10, n=4
Description: as §1

cortical neurons = test: Neuroprotection assay: cortical neurons damaged with oligomycin A, MTT viability; assay type: cell-based, rat
Text: To assess the neuroprotective capacity of Extract B, a model of neuronal damage caused by chemical ischemia was used, preferably the model of damage caused by oligomycin A. Oligomycin A is a macrolide that blocks oxidative phosphorylation, inhibiting mitochondrial ATP synthase.
In order to assess the neuroprotective capacity, a primary culture of cortical neurons of stage E18 rat embryos was used. To this end, adult female rats were acquired, pregnant at stage 18, from the CINBIOT bioterium of the Faculty of Biological Science, Pontificia Universidad Católica de Chile. […]
On the 9th of culture, the challenge with oligomycin A was carried out. […] Thereafter, neuronal viability was determined, by removing the entire culture medium, it was washed once with PBS and incubated with 0.5 mg/mL of MTT in neurobasal medium without phenol red at 37° C. for 2 hours to establish the mitochondrial activity, wherein MTT (yellow) is transformed into MTT formazan (dark blue), when reduced by live cells. […] Subsequently, 100 μl of this solution were moved to a 96-wel plate to measure absorbance at 570 nm and 620 nm in spectrophotometer. The difference between absorbances (570-620) was calculated, and the survival was estimated relative to the control treated with DMSO and without damage caused by oligomycin A. The presence of MTT formazan is quantified at 570 nm. […]

Compound: CC(C)C[C@H](NC(=O)OCC1c2ccccc2-c2ccccc21)C(=O)O [FMOC-Leu]
- PPARγ transcriptional activity, times higher than negative control (PPARγ): 14.7 times
- fabp4 mRNA expression, times relative to control DMSO (fabp4 gene): 1.7 times
- cell survival (MTT) relative to control (DMSO) (3T3-L1 cells [1]): 100%
- Oil Red O (neutral lipid) accumulation, times relative to control (3T3-L1 cells [2]): 1.1

Compound: CC[C@@H]1/C=C/C=C/C[C@H](C)[C@H](O)[C@](C)(O)C(=O)[C@H](C)[C@@H](O)[C@H](C)C(=O)[C@H](C)[C@@H](O)[C@H](C)/C=C/C(=O)O[C@H]2[C@@H](C)[C@@H](CC1)O[C@@]1(CC[C@@H](C)[C@@H](C[C@H](C)O)O1)[C@@H]2C [oligomycin A, Oligomycin A]
- neuronal viability after oligomycin A, % of undamaged DMSO control (cortical neurons; oligomycin A 2 μM 30 min, no extract, rat cortical neurons): 22.5%

Compound: vitamin E
- protection against oligomycin A (cortical neurons; 10 μM alone, data not shown): does not provide protection
